Assay results: patent publication US20210267203A1, “PESTICIDALLY ACTIVE AZOLE-AMIDE COMPOUNDS” (SYNGENTA PARTICIPATIONS AG, priority 2018, published 2021)

Tests used:
Type in all cases: in vivo
[1] = tested on: Myzus persicae (Green Peach Aphid); assay: Example B8: Myzus persicae (green peach aphid), intrinsic activity; details: 120 h, test rate 12 ppm, sucrose solution, 24-well, 5 days after infestation
Text: Example B8: Myzus persicae (Green Peach Aphid), Intrinsic Activity
Test compounds prepared from 10,000 ppm DMSO stock solutions were applied by pipette into 24-well microtiter plates and mixed with sucrose solution. The plates were closed with a stretched Parafilm. A plastic stencil with 24 holes was placed onto the plate and infested pea seedlings were placed directly on the Parafilm. The infested plate was closed with a gel blotting paper and another plastic stencil and then turned upside down. The samples were assessed for mortality 5 days after infestation.

[2] = tested on: Myzus persicae (Green Peach Aphid); assay: Example B13: activity against Myzus persicae (green peach aphid), 96-well sucrose solution; details: 120 h, application rate 50 ppm, 5 days after infestation
Text: Example B13: Activity Against Myzus persicae (Green Peach Aphid)
Test compounds prepared from 10,000 ppm DMSO stock solutions were applied by a liquid handling robot into 96-well microtiter plates and mixed with a sucrose solution. Parafilm was stretched over the 96-well microtiter plate and a plastic stencil with 96 holes was placed onto the plate. Aphids were sieved into the wells directly onto the Parafilm. The infested plates were closed with a gel blotting card and a second plastic stencil and then turned upside down. The samples were assessed for mortality 5 days after infestation.

[3] = tested on: Plutella xylostella (Diamondback Moth); assay: Example B14: activity against Plutella xylostella (diamondback moth), 96-well artificial diet; details: 216 h, application rate 500 ppm, 9 days after infestation
Experimental: Example B14: Activity Against Plutella xylostella (Diamondback Moth)
96-well microtiter plates containing artificial diet were treated with aqueous test solutions, prepared from 10,000 ppm DMSO stock solutions, by a liquid handling robot. After drying, eggs (30 per well) were infested onto a netted lid which was suspended above the diet. The eggs hatch and L1 larvae move down to the diet. The samples were assessed for mortality 9 days after infestation.
The following compounds gave an effect of at least 80% average mortality at an application rate of 500 ppm: […]

[4] = tested on: Plutella xylostella (Diamond Back Moth); assay: Example B5: Plutella xylostella (diamond back moth), artificial diet, 24-well, eggs; details: 192 h, application rate 200 ppm, 8 days after infestation, read-out: effect in at least one of the two categories (mortality or growth inhibition)
Experimental: Example B5: Plutella xylostella (Diamond Back Moth)
24-well microtiter plates with artificial diet were treated with aqueous test solutions prepared from 10,000 ppm DMSO stock solutions by pipetting. After drying, Plutella eggs were pipetted through a plastic stencil onto a gel blotting paper and the plate was closed with it. The samples were assessed for mortality and growth inhibition in comparison to untreated samples 8 days after infestation. The following compounds gave an effect of at least 80% in at least one of the two categories (mortality or growth inhibition) at an application rate of 200 ppm: […]

[5] = tested on: Diabrotica Balteata (Corn Root Worm); assay: Example B1: Diabrotica balteata (corn root worm), maize sprouts sprayed, L2 larvae; details: 96 h, application rate 200 ppm, 4 days after infestation, read-out: effect in at least one of the two categories (mortality or growth inhibition)
Experimental: Example B1: Diabrotica Balteata (Corn Root Worm)
Maize sprouts placed onto an agar layer in 24-well microtiter plates were treated with aqueous test solutions prepared from 10,000 ppm DMSO stock solutions by spraying. After drying, the plates were infested with L2 larvae (6 to 10 per well). The samples were assessed for mortality and growth inhibition in comparison to untreated samples 4 days after infestation.
(§1) The following compounds gave an effect of at least 80% in at least one of the two categories (mortality or growth inhibition) at an application rate of 200 ppm: […]

[6] = tested on: Spodoptera littoralis (Egyptian Cotton Leaf Worm); assay: Example B9: Spodoptera littoralis (Egyptian cotton leaf worm), cotton leaf discs sprayed, L1 larvae; details: foliar, 72 h, application rate 200 ppm, 3 days after infestation
Experimental: Example B9: Spodoptera littoralis (Egyptian Cotton Leaf Worm)
Cotton leaf discs were placed onto agar in 24-well microtiter plates and sprayed with aqueous test solutions prepared from 10,000 ppm DMSO stock solutions. After drying the leaf discs were infested with five L1 larvae. The samples were assessed for mortality, anti-feeding effect, and growth inhibition in comparison to untreated samples 3 days after infestation. Control of Spodoptera littoralis by a test sample is given when at least one of the three categories (i.e. mortality, anti-feedant effect, and growth inhibition) is higher than the untreated sample.

[7] = tested on: Euschistus heros (Neotropical Brown Stink Bug); assay: Example B2: Euschistus heros (neotropical brown stink bug), soybean leaves sprayed, N2 nymphs; details: 120 h, application rate 200 ppm, 5 days after infestation, read-out: effect in at least one of the two categories (mortality or growth inhibition)
Experimental: Example B2: Euschistus heros (Neotropical Brown Stink Bug)
Soybean leaves on agar in 24-well microtiter plates were sprayed with aqueous test solutions prepared from 10,000 ppm DMSO stock solutions. After drying the leaves were infested with N2 nymphs. The samples were assessed for mortality and growth inhibition in comparison to untreated samples 5 days after infestation.
as §1

[8] = tested on: Chilo suppressalis (Striped Rice Stemborer); assay: Example B4: Chilo suppressalis (striped rice stemborer), artificial diet, L2 larvae; details: 144 h, application rate 200 ppm, 6 days after infestation
Experimental: Example B4: Chilo suppressalis (Striped Rice Stemborer)
24-well microtiter plates with artificial diet were treated with aqueous test solutions prepared from 10,000 ppm DMSO stock solutions by pipetting. After drying, the plates were infested with L2 larvae (6-8 per well). The samples were assessed for mortality, anti-feeding effect, and growth inhibition in comparison to untreated samples 6 days after infestation. Control of Chilo suppressalis by a test sample is given when at least one of the categories (i.e. mortality, anti-feedant effect, and growth inhibition) is higher than the untreated sample.

CC(c1ncnn1-c1ncccn1)N(CC1CC1)C(=O)c1cccc(C2(C#N)CC2)c1 (centres unmarked) [P21, 3-(1-cyanocyclopropyl)-N-(cyclopropylmethyl)-N-[1-(2-pyrimidin-2-yl-1,2,4-triazol-3-yl)ethyl]benzamide]
≥ 80%: mortality at 12 ppm [1] | mortality at 50 ppm [2] | mortality at 500 ppm [3]

CC(c1ncnn1-c1ncccn1)N(CC1CC1)C(=O)c1cccc(C2CC2C(F)(F)F)c1 (centres unmarked) [P23, N-(cyclopropylmethyl)-N-[1-(2-pyrimidin-2-yl-1,2,4-triazol-3-yl)ethyl]-3-[2-(trifluoromethyl)cyclopropyl]benzamide]
≥ 80%: percent effect (mortality or growth inhibition) at 200 ppm [4] | mortality at 12 ppm [1] | mortality at 50 ppm [2] | mortality at 500 ppm [3]

CC(c1ncnn1-c1ncccn1)N(CC1CC1)C(=O)c1cc(C(F)(F)F)cc(C(C)(C)C#N)n1 (centres unmarked) [P31, 6-(1-cyano-1-methyl-ethyl)-N-(cyclopropylmethyl)-N-[1-(2-pyrimidin-2-yl-1,2,4-triazol-3-yl)ethyl]-4-(trifluoromethyl)pyridine-2-carboxamide]
≥ 80%: percent effect (mortality or growth inhibition) at 200 ppm [5] | percent effect (mortality or growth inhibition) at 200 ppm [4] | mortality at 50 ppm [2] | mortality at 500 ppm [3]

CC(c1ncnn1-c1ncccn1)N(CC1CC1)C(=O)c1cc(C(F)(F)F)cc(C2(C#N)CC2)n1 (centres unmarked) [P33, 6-(1-cyanocyclopropyl)-N-(cyclopropylmethyl)-N-[1-(2-pyrimidin-2-yl-1,2,4-triazol-3-yl)ethyl]-4-(trifluoromethyl)pyridine-2-carboxamide]
≥ 80%: percent effect (mortality or growth inhibition) at 200 ppm [5] | percent effect (mortality or growth inhibition) at 200 ppm [4] | mortality at 50 ppm [2] | mortality at 500 ppm [3]

CC(c1ncnn1-c1ncccn1)N(CC1CC1)C(=O)c1cccc(C(F)(F)C2CC2)c1 (centres unmarked) [P40, 3-[cyclopropyl(difluoro)methyl]-N-(cyclopropylmethyl)-N-[1-(2-pyrimidin-2-yl-1,2,4-triazol-3-yl)ethyl]benzamide]
≥ 80%: percent effect (mortality or growth inhibition) at 200 ppm [5] | percent effect (mortality or growth inhibition) at 200 ppm [4] | percent control (mortality, anti-feedant effect or growth inhibition) at 200 ppm [6] | mortality at 50 ppm [2] | mortality at 500 ppm [3]

CC(c1ncnn1-c1ncccn1)N(CC1CC1)C(=O)c1cc(C(F)(F)F)cc(C2(C(F)(F)F)CC2(F)F)c1 (centres unmarked) [P41, N-(cyclopropylmethyl)-3-[2,2-difluoro-1-(trifluoromethyl)cyclopropyl]-N-[1-(2-pyrimidin-2-yl-1,2,4-triazol-3-yl)ethyl]-5-(trifluoromethyl)benzamide]
≥ 80%: percent effect (mortality or growth inhibition) at 200 ppm [5] | percent effect (mortality or growth inhibition) at 200 ppm [7] | percent effect (mortality or growth inhibition) at 200 ppm [4] | percent control (mortality, anti-feedant effect or growth inhibition) at 200 ppm [6] | mortality at 500 ppm [3]

CC(c1ncnn1-c1ncccn1)N(CC1CC1)C(=O)c1cc(C(F)(F)F)cc(C2(C)CC2(F)F)c1 (centres unmarked) [P44, N-(cyclopropylmethyl)-3-(2,2-difluoro-1-methyl-cyclopropyl)-N-[1-(2-pyrimidin-2-yl-1,2,4-triazol-3-yl)ethyl]-5-(trifluoromethyl)benzamide]
≥ 80%: percent effect (mortality or growth inhibition) at 200 ppm [5] | percent effect (mortality or growth inhibition) at 200 ppm [7] | percent effect (mortality or growth inhibition) at 200 ppm [4] | percent control (mortality, anti-feedant effect or growth inhibition) at 200 ppm [6] | mortality at 50 ppm [2] | mortality at 500 ppm [3]

CC(c1ncnn1-c1ncccn1)N(CC1CC1)C(=O)c1cc(OC2CC2)cc(C(F)(F)F)c1 (centres unmarked) [P51, 3-(cyclopropoxy)-N-(cyclopropylmethyl)-N-[1-(2-pyrimidin-2-yl-1,2,4-triazol-3-yl)ethyl]-5-(trifluoromethyl)benzamide]
≥ 80%: percent effect (mortality or growth inhibition) at 200 ppm [5] | percent effect (mortality or growth inhibition) at 200 ppm [4] | percent control (mortality, anti-feedant effect or growth inhibition) at 200 ppm [6] | mortality at 50 ppm [2] | mortality at 500 ppm [3]

CC(c1ncnn1-c1ncccn1)N(CC1CC1)C(=O)c1cc(C(F)(F)F)nc(S(C)(=O)=O)c1 (centres unmarked) [P53, N-(cyclopropylmethyl)-2-methylsulfonyl-N-[1-(2-pyrimidin-2-yl-1,2,4-triazol-3-yl)ethyl]-6-(trifluoromethyl)pyridine-4-carboxamide]
≥ 80%: percent effect (mortality or growth inhibition) at 200 ppm [7]

CC(c1ncnn1-c1ncccn1)N(CC1CC1)C(=O)c1cc(OC2CC2)cc(OC2CC2)c1 (centres unmarked) [P60, 3,5-bis(cyclopropoxy)-N-(cyclopropylmethyl)-N-[1-(2-pyrimidin-2-yl-1,2,4-triazol-3-yl)ethyl]benzamide]
≥ 80%: percent effect (mortality or growth inhibition) at 200 ppm [5] | percent effect (mortality or growth inhibition) at 200 ppm [4] | mortality at 50 ppm [2] | mortality at 500 ppm [3]

CC(NC(=O)c1cc(C(F)(F)F)cc(C(F)(F)C2CCC2)c1)c1ncnn1-c1ncccn1 (centres unmarked) [P66, 3-[cyclobutyl(difluoro)methyl]-N-[1-(2-pyrimidin-2-yl-1,2,4-triazol-3-yl)ethyl]-5-(trifluoromethyl)benzamide]
≥ 80%: percent control (mortality, anti-feedant effect or growth inhibition) at 200 ppm [8]

CC(NC(=O)c1cc(-c2ccc(C(F)(F)F)cc2)cc(C(F)(F)F)c1)c1ncnn1-c1ncccn1 (centres unmarked) [P67, N-[1-(2-pyrimidin-2-yl-1,2,4-triazol-3-yl)ethyl]-3-(trifluoromethyl)-5-[4-(trifluoromethyl)phenyl]benzamide]
≥ 80%: percent effect (mortality or growth inhibition) at 200 ppm [5] | percent control (mortality, anti-feedant effect or growth inhibition) at 200 ppm [8] | percent effect (mortality or growth inhibition) at 200 ppm [4] | mortality at 50 ppm [2]

CC(NC(=O)c1cc(-c2cccc(C(F)(F)F)c2)cc(C(F)(F)F)c1)c1ncnn1-c1ncccn1 (centres unmarked) [P68, N-[1-(2-pyrimidin-2-yl-1,2,4-triazol-3-yl)ethyl]-3-(trifluoromethyl)-5-[3-(trifluoromethyl)phenyl]benzamide]
≥ 80%: percent effect (mortality or growth inhibition) at 200 ppm [5] | percent control (mortality, anti-feedant effect or growth inhibition) at 200 ppm [8] | percent effect (mortality or growth inhibition) at 200 ppm [4] | percent control (mortality, anti-feedant effect or growth inhibition) at 200 ppm [6] | mortality at 50 ppm [2]

CC(NC(=O)c1cc(C2CC2)cc(C(F)(F)F)c1)c1ncnn1-c1ccc(Br)cn1 (centres unmarked) [P74, N-[1-[2-(5-bromo-2-pyridyl)-1,2,4-triazol-3-yl]ethyl]-3-cyclopropyl-5-(trifluoromethyl)benzamide]
≥ 80%: percent effect (mortality or growth inhibition) at 200 ppm [5] | percent control (mortality, anti-feedant effect or growth inhibition) at 200 ppm [8] | percent effect (mortality or growth inhibition) at 200 ppm [4] | percent control (mortality, anti-feedant effect or growth inhibition) at 200 ppm [6]

CC(NC(=O)c1cc(C(F)(F)F)cc(C2(C#N)CC2)c1)c1ncnn1-c1ccccn1 (centres unmarked) [P76, 3-(1-cyanocyclopropyl)-N-[1-[2-(2-pyridyl)-1,2,4-triazol-3-yl]ethyl]-5-(trifluoromethyl)benzamide]
≥ 80%: percent effect (mortality or growth inhibition) at 200 ppm [5] | percent control (mortality, anti-feedant effect or growth inhibition) at 200 ppm [8] | percent effect (mortality or growth inhibition) at 200 ppm [4] | percent control (mortality, anti-feedant effect or growth inhibition) at 200 ppm [6]
